# Source: patent US11684598B2, “Use of cannabinoids in the treatment of epilepsy” (priority 2015, dated 2023)
# pIC50: −log10 of the molar value. Read-outs that look alike come from different tables or passages of the source.
# How the values were obtained:
# [1] = tested on: D. discoideum development; assay: D. discoideum development assay; format: cell-based, Dictyostelium discoideum
# Description: Wild type (A×2) D. discoideum cells were grown in HL5 shaking culture for two days prior to development assay. Cells were washed in phosphate buffer (KK2; 20 mM Potassium phosphate buffer, pH 6.1), and 1×10^7 cells were spread onto nitrocellulose filters (Millipore, Cork). Absorbent pads (Millipore, Cork), divided into quarters, were placed in 2 ml culture dishes and soaked with 0.5 ml KK2 containing the cannabinoids at 20 μM. 1 mM Valproic acid was used as a positive control while KK2 containing 1% DMSO was used as a solvent only control. Nitrocellulose filters containing cells were quartered and place upon absorbent pads and maintained in a humid environment at 22° C. for 24 h. Fruiting body morphology was recorded using a dissection microscope and camera.
# [2] = tested on: PTZ-induced generalised seizures; assay: Acute PTZ-induced model of generalised seizure; format: in vivo, rat
# Description: Adult male Wistar Kyoto rats were used in the acute PTZ model of seizure (>P24, 70-110 g). Animals were housed five per cage in a heat regulated room (21° C.) on a 12:12 h day/night cycle (lights on 0800) in 50% humidity and given ad libitum access to standard laboratory chow (PCD Mod C, Special Diet Services, Wiltham, UK) and water. All procedures were undertaken during white light hours.
# (§1) A PTZ (Sigma-Aldrich, Poole, UK) stock solution was made in 0.9% w/v NaCl for the experimental procedure.
# PTZ antagonises GABA inhibition via binding to the t-butyl-bicycl-phosphorothionate site of GABAA receptors. Moreover, this chemically-induced model can be indicative of effects against absence seizures. PTZ (90 mg/kg) was used to induce seizures in adult male Wistar rats (n=15 per group) with experiment dose randomised using a Latin square design. Animals were placed in their 6 L Perspex tanks and allowed to acclimatise to their environment for 10 min, before receiving one of the cannabinoid doses (see Table 5) in vehicle, or volume-matched dose of vehicle alone to serve as a negative control. 60 min after test compound or vehicle administration, animals were injected with PTZ (90 mg/kg, i.p.) to induce seizures and animal behaviour was recorded for 30 min.
# Videos of PTZ-induced seizures were scored offline with a standard seizure severity scale appropriate for generalised seizures (Table 6).
# Videos of seizure behaviour generated from the custom built observational system were scored offline according to seizure scales appropriate for PTZ model (Table 6) using Observer Video-Pro software (Noldus, Wageningen, The Netherlands). For the PTZ model of seizure, intra- and inter-observer agreements of behaviour scoring were assessed using the reliability analysis function of the observer Video-Pro software: 1 s tolerance window; Cohen's Kappa coefficient≥0.95.
# Specific markers of seizure behaviour and development were assessed and compared between vehicle control and drug groups. The latency (s) to seizure onset and the percentage of animals that developed tonic-clonic seizures was noted (see Table 6). In addition, the maximum seizure severity and the percentage mortality in each group were determined for the acute PTZ model of generalised seizure.
# The effect of drug on latency to seizure onset and maximum seizure severity were assessed using Krustal-Wallis with post-hoc Mann-Whitney U-tests. Drug effects on the percentage of animals that developed tonic-clonic seizures and percentage mortality were assessed using Chi-squared with post-hoc Fisher exact tests. In all cases, P≤0.05 was considered significant.
# [3] = Formulation analysis (decarboxylation of CBDA to CBD); format: physicochemical; conditions: 2:1:17 vehicle of ethanol, cremophor and saline
# Description: as §1
# Formulation analysis was undertaken to determine whether CBDA decarboxylated to CBD because of temperature and/or the excipients in the formulation. […] Therefore, CBDA was not modified during formulation, and a 2:1:17 ratio can be used in future investigations for this phytocannabinoid.
# [4] = tested on: D. discoideum growth upon R. planticola bacterial plates; assay: Bacterial plate screen; format: cell-based, Dictyostelium discoideum; conditions: CBDA 12.3 μM, CBD 16.7 μM; 4 days
# Description: Heat killed (75° C. for 30 minutes) R. planticola was spread onto the plates and ˜50 wild-type A×2 cells were added and left to grow at 22° C. Plates were checked regularly for colonies.
# [5] = Toxicokinetics from toxicological studies in dogs, daily oral (gavage) administration; format: in vivo, dog; conditions: dog, plasma, po, 100 mg/kg, Day 1, mean; for AUC0-t: read-out: AUC0-t; for Cmax: read-out: Cmax
# Description: Samples were taken from the jugular vein into lithium heparin. Samples were mixed gently by hand then continuously for at least 2 minutes on automatic mixer and placed in a Kryorack until centrifugation, which was carried out at approximately 4° C. as soon as practicable. The resultant plasma was separated under low light conditions, transferred to uniquely labelled clear glass vials, placed in light proof boxes and frozen immediately at <−50° C.
# [6] = tested on: D. discoideum cell growth; assay: D. discoideum growth assay; format: cell-based, Dictyostelium discoideum
# Description: Wild type (A×2) D. discoideum cells were grown in shaking culture (in HL5 medium) for two days prior to growth assays. Cells (9900 in 495 μl of media) were added to each well of a 24 well plate and 5 μl of cannabinoid in DMSO (or DMSO only) was added to each well to achieve each described concentration (1% final DMSO concentration), and cells were maintained at 22° C. Cells were counted at 72 hours, and then every 24 hours. Quadruplicate repeats were used for each concentration.
# [7] = female, comparative Table 11, females
# [8] = male, comparative Table 10, males
SMILES,"effect on development (fruiting body morphology) ([1]; 1 mM, positive control, 24 h)","effect on percentage mortality ([2]; 100 mg/kg CBD (P≤0.01), 100 mg/kg CBDA (P=0.0656), CBD/CBDA ratio (P=0.0656))","effect on latency to seizure onset ([2]; 100 mg/kg CBD (P≤0.05), CBD/CBDA 9:1 (P≤0.05), CBDA 100 mg/kg (P=0.0929))","median score for the maximum seizure severity ([2]; 100 mg/kg, PTZ 90 mg/kg i.p. 60 min after compound, scale of Table 6, n=15)","effect on incidence of tonic-clonic seizures ([2]; 100 mg/kg, P≤0.1)","effect on seizure severity vs vehicle control ([2]; CBDA 100 mg/kg, CBD/CBDA 9:1 ratio (90/10 mg/kg), P≤0.05)",conversion of CBDA to CBD during formulation [3],cell survival (colony number) compared to control (solvent only) [4],"effect on development (fruiting body morphology) ([1]; 20 μM, 24 h on nitrocellulose filter)","AUC0-t [5, 7] [µg·h/mL]","Cmax [5, 7] [ng/mL]","AUC0-t [5, 8] [µg·h/mL]","Cmax [5, 8] [ng/mL]","pIC50 ([6]; Dictyostelium discoideum, 168 h, read-out: growth inhibitory constant (IC50))",concentration blocking growth ([6]; growth over one week) [µM],concentration significantly inhibiting cell growth (P<0.05) ([6]; growth over one week) [µM]
CCCC(CCC)C(=O)O [valproic acid],able to aggregate but unable to undergo development to form fruiting bodies,–,–,–,–,–,–,–,–,–,–,–,–,–,–,–
"C=C(C)[C@@H]1CCC(C)=C[C@H]1c1c(O)cc(CCCCC)c(C(=O)O)c1O [CBDA, Cannabidiolic acid]",–,trend towards a significant reduction,trend towards increasing the latency to seizure onset,3,trend towards a reduction in tonic-clonic seizures,significant anti-convulsant effects,not converted to CBD during formulation,No difference in colony number,able to aggregate and develop to form mature fruiting bodies,179,38600,80.5,24900,6.52,20,0.08
